# Key:
# [1] = in vivo; cited from earlier work
# [2] = test system: blood pressure; conditions: in vivo; cited from earlier work
# [3] = molecular target: NET (norepinephrine transporter) (Homo sapiens, UniProt P23975); conditions: cited from earlier work
# [4] = test system: brain-dead pigs; assay: More than 20 experiments with pigs using cocaine in combination with adrenaline and noradrenaline, blood pressure over 24 hours; format: in vivo, pig; conditions: from initiation of the intervention and over 24 hours
# Source text: The inventor has performed more than 20 experiments with pigs and using cocaine in combination with adrenaline and noradrenaline.
# [5] = test system: brain-dead body of a pig; conditions: adrenaline and noradrenaline at constant 0.4 ml/hour
# Protocol: In this experiment, adrenaline and noradrenaline was added at a constant rate of 0.4 ml/hour.
# [6] = test system: brain-dead, heart-beating, respirated donor; conditions: blood circulation
# Protocol: In order to test this hypothesis, other NET inhibitors were tested, such as desipramine and imipramine, which both are known to be NET inhibitors.
# [7] = test system: brain-dead body of a pig; assay: Experiment 2: infusion of desipramine solution with adrenaline and noradrenaline, blood pressure
# Protocol: In addition 1 mg of adrenaline and 1 mg of noradrenaline was included in the solution.
# [8] = test system: alpha-1; assay: Potency as replacement of noradrenaline (alpha-1-agonist)
# Source text: In some embodiments, the adrenaline and/or noradrenaline may be partly or entirely replaced by an equivalent substance. For example, phenylephrine is an alpha-1-agonist and may replace noradrenaline.
# NET (norepinephrine transporter), sequence (P23975 whole entry, species assumed): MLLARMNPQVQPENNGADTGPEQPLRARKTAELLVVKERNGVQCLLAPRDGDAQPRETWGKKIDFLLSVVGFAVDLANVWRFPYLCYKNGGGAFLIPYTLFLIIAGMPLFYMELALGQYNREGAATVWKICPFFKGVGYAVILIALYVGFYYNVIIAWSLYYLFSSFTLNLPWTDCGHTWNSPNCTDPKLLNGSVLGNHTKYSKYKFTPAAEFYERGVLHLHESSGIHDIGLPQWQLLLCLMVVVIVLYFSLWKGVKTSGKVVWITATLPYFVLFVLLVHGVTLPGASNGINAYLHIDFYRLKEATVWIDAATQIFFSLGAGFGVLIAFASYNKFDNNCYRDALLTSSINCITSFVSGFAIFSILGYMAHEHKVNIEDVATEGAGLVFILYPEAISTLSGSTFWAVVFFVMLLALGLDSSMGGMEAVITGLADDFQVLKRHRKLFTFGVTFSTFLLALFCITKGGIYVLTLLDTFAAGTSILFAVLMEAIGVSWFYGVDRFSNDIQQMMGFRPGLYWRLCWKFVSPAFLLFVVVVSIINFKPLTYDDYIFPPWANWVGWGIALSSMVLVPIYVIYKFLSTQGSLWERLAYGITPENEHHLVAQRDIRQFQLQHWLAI
smiles,measurement,setting,value
"NC(=O)CC[C@@H]1NC(=O)[C@H](Cc2ccccc2)NC(=O)[C@H](Cc2ccc(O)cc2)NC(=O)[C@@H](N)CSSC[C@@H](C(=O)N2CCC[C@H]2C(=O)N[C@@H](CCCN=C(N)N)C(=O)NCC(N)=O)NC(=O)[C@H](CC(N)=O)NC1=O [ADH, vasopressin]",half-life-time,[1],about 15 minutes
CCN(CC)CC(=O)Nc1c(C)cccc1C [Lidocaine],effect of infusion on blood pressure,[2],vasodilatation and a lowering of the blood pressure
CNCCCN1c2ccccc2CCc2ccc(Cl)cc21 [Norclomipramine],potency among typical NET inhibitors,[3],highest
"CNCCCC1c2ccccc2C=Cc2ccccc21 [Protriptylin, Protriptyline]",potency among typical NET inhibitors,[3],highest
"COC(=O)[C@H]1[C@@H](OC(=O)c2ccccc2)C[C@@H]2CC[C@H]1N2C [cocaine, benzoylmethyl ecgonine]",blood pressure maintained at a constant level,[4],70 mmHg
same,effect of bolus on blood pressure,[5]; bolus of 2 mg at 21 hours,increase of the blood pressure
same,time after which the effect of the bolus ceased,[5]; bolus of 2 mg at 21 hours,about 3 hours
same,effect of addition together with noradrenaline on noradrenaline needed for vasoconstriction,[6],much lower levels of noradrenaline
same,half-life time,[1],about 1 hours
"CNCCCN1c2ccccc2CCc2ccccc21 [desipramine, Desipramine]",half-life time,[1],30 h
same,mean pressure reached on infusion,"[7]; 3 mg desipramine, 1 mg adrenaline, 1 mg noradrenaline in 50 ml, 1.7 then 3.2 ml/hour, from a mean pressure of about 40 mmHg",80 mmHg
same,blood pressure after infusion rate was decreased,"[7]; infusion decreased to 2.5 then 1.7 ml/hour, never decreased further",about 60 mmHg
"CN(C)CCCN1c2ccccc2CCc2ccccc21 [imipramine, Imipramine]",blood pressure reached after bolus,"[5]; bolus at 24.5 hours, from about 80 mmHg",about 100 mmHg
CNC[C@H](O)c1cccc(O)c1 [phenylephrine],times less potent as noradrenaline,[8],about 5 times

# Reference: patent US20160354359A1, “C[…]-[…] A NET INHIBITOR FOR ADM[…] A BRAIN-DEAD, HEART-BEATING POTENTIAL ORGAN DONOR” (VIVOLINE MEDICAL AB, priority 2008, published 2016)
